From patent publication EP3125690B1, “HERBICIDAL MIXTURE OF CAROTENOID BIOSYNTHESIS INHIBITING COMPOUND AND AN AHAS/ALS INHIBITING COMPOUND AND USES THEREOF” (Adama Agan Ltd., priority 2014, dated 2015)

How the values were obtained:
Assay type in all cases: in vivo
Persicaria lapathifolia [1] = assay: Herbicide efficacy trial in sunflower crop, Example 1 (0 to 100 scale); conditions: avg, n 1
Source text: (§1) Four herbicide treatments were compared: • a) Imazamox 20 g/l + Aclonifen 300 g/l SC formulation (Application Rate of 2.0 l/ha) • b) Imazamox 40 g/l SC + Aclonifen 600 g/l SC tank-mix (Application Rate of 1.0 l/ha + 1.0 l/ha) • c) Imazamox 40 g/l SL formulation (commercially available as Pulsar) (Application Rate of 1.0 1/ha) • d) Aclonifen 600 g/l SC formulation (Application Rate of 1.0 l/ha)
(§2) The above treatments were applied to a variety of weeds. The results are based on a 0 to 100 scale where 0 is no effect and 100 is complete control. Table 2 compares the individual applications aclonifen and imazamox with the tank-mix of the two active ingredients as well as the ready-mix formulation of aclonifen and imazamox.
(§3) The trial detailed in Tables 1-4 were conducted on Sunflower crop in France, Hungary and Romania.

Hibiscus trionum = assay: as above; conditions: avg, n 2
Source text: as §1, §2, §3

Mercurialis annua = assay: as above; conditions: avg, n 2
Source text: as §1, §2, §3

Fallopia convolvulus = assay: as above; conditions: avg, n 1
Source text: as §1, §2, §3

Setaria pumila [2] = assay: as above; conditions: avg, n 1
Source text: as §1, §2, §3

Calystegia sepium = assay: as above; conditions: avg, n 1
Source text: as §1, §2, §3

Echinochloa crus-galli = assay: as above; conditions: avg, n 3
Source text: as §1, §2, §3

Amaranthus retroflexus = assay: as above; conditions: avg, n 2
Source text: as §1, §2, §3

Abutilon theophrasti = assay: as above; conditions: avg, n 1
Source text: as §1, §2, §3

Chenopodium album = assay: as above; conditions: avg, n 6
Source text: as §1, §2, §3

Sonchus arvensis = assay: as above; conditions: avg, n 1
Source text: as §1, §2, §3

Conyza Canadensis = assay: as above; conditions: avg, n 1
Source text: as §1, §2, §3

Digitaria sanguinalis = assay: as above; conditions: avg, n 1
Source text: as §1, §2, §3

Ambrosia artemisiifolia = assay: as above; conditions: avg, n 2
Source text: as §1, §2, §3

Persicaria lapathifolia [3] = assay: Herbicide efficacy trial with Colby calculation, Example 2; conditions: application rate 1000 (ml or gr)
Source text: (§4) In the context of the present subject matter, the term "synergy" is as defined by Colby S. R. in an article entitled "Calculation of the synergistic and antagonistic responses of herbicide combinations" published in the journal Weeds, 1967, 15, p. 20-22, incorporated herein by reference in its entirety. The action expected for a given combination of three active ingredients can be calculated as follows: E = X + Y−(XY)/(100) [formula] in which E represents the expected percentage of herbicidal control for the combination of the three herbicides at defined doses (for example equal to x, y and z respectively), X is the percentage of herbicidal control observed by aclonifen at a defined dose (equal to x), Y is the percentage of herbicidal control observed by imazamox at a defined dose (equal to y). When the percentage of herbicidal control observed for the combination is greater than the expected percentage, there is a synergistic effect. When the percentage of control observed for the combination is equal to the expected percentage, there is an additive effect and wherein the percentage of herbicidal control observed for the combination is lower than the expected percentage, there is an antagonistic effect.
(§5) Three herbicide treatments were compared: • a) Imazamox 40 g/l SC + Aclonifen 600 g/l SC tank-mix (Application Rate of 1.0 l/ha + 1.0 l/ha) • b) Imazamox 40 g/l SL formulation (commercially available as Pulsar) (Application Rate of 1.0 l/ha) • c) Aclonifen 600 g/l SC formulation (Application Rate of 1.0 l/ha)
(§6) The above treatments were applied to a variety of weeds. The results are based on a 0 to 100 scale where 0 is no effect and 100 is complete control. Table 3-4 compares the individual applications of aclonifen and imazamox with the tank of the two active ingredients.
as §3

Setaria pumila [4] = assay: as above; conditions: application rate 1000 (ml or gr); for % control observed 41 DAA: 41 days after application; for % control observed 62 DAA: 62 days after application; for % control observed 107 DAA: 107 days after application
Source text: as §4, §5, §6, §3

Solanum Nigrum = assay: as above; conditions: application rate 1000 (ml or gr)
Source text: as §4, §5, §6, §3

Persicaria lapathifolia [5] = assay: Herbicide efficacy trial with Colby calculation, Example 3; conditions: application rate 1000 (ml or gr); for % control observed 13 DAA: 13 days after application; for % control observed 38 DAA: 38 days after application; for % control observed 76 DAA: 76 days after application
Source text: as §4
as §1, with “l/ha)” for “1/ha)”
as §2, with “5” for “2”

With `Nc1c([N+](=O)[O-])ccc(Oc2ccccc2)c1Cl` [Aclonifen SC, 2-Chlor-6-nitro-3-phenoxyanilin] the “Efficacy (% Control)” value (Persicaria lapathifolia [1]; 600 g ai/ha, 1,00 l/ha) was 38.3%, the “Efficacy (% Control)” value (Hibiscus trionum; 600 g ai/ha, 1,00 l/ha) was 81.3% and the “Efficacy (% Control)” value (Mercurialis annua; 600 g ai/ha, 1,00 l/ha) was 74.7%. For the same compound, the “Efficacy (% Control)” value (Fallopia convolvulus; 600 g ai/ha, 1,00 l/ha) was 91.0%, the “Efficacy (% Control)” value (Setaria pumila [2]; 600 g ai/ha, 1,00 l/ha) was 20.0% and the “Efficacy (% Control)” value (Calystegia sepium; 600 g ai/ha, 1,00 l/ha) was 66.8%. For the same compound, the “Efficacy (% Control)” value (Echinochloa crus-galli; 600 g ai/ha, 1,00 l/ha) was 78.1%, the “Efficacy (% Control)” value (Amaranthus retroflexus; 600 g ai/ha, 1,00 l/ha) was 72.0% and the “Efficacy (% Control)” value (Abutilon theophrasti; 600 g ai/ha, 1,00 l/ha) was 50.0%. For the same compound, the “Efficacy (% Control)” value (Chenopodium album; 600 g ai/ha, 1,00 l/ha) was 85.1%, the “Efficacy (% Control)” value (Sonchus arvensis; 600 g ai/ha, 1,00 l/ha) was 84.7% and the “Efficacy (% Control)” value (Conyza Canadensis; 600 g ai/ha, 1,00 l/ha) was 25.0%. For the same compound, the “Efficacy (% Control)” value (Digitaria sanguinalis; 600 g ai/ha, 1,00 l/ha) was 62.5%, the “Efficacy (% Control)” value (Ambrosia artemisiifolia; 600 g ai/ha, 1,00 l/ha) was 78.9% and the “% control observed” value (Persicaria lapathifolia [3]; 600 g/ha) was 38.30%. For the same compound, the “% control observed” value (Setaria pumila [4]; 600 g/ha) was 20%, the “% control observed 41 DAA” value (Setaria pumila [4]; 600 g/ha) was 11.00% and the “% control observed 62 DAA” value (Setaria pumila [4]; 600 g/ha) was 20.00%. The “% control observed 107 DAA” value (Setaria pumila [4]; 600 g/ha) was 20.00%, the “% control observed” value (Solanum Nigrum; 600 g/ha) was 33.33% and the “% control observed 13 DAA” value (Persicaria lapathifolia [5]; 600 g/ha) was 71.02%. The “% control observed 38 DAA” value (Persicaria lapathifolia [5]; 600 g/ha) was 44.14% and the “% control observed 76 DAA” value (Persicaria lapathifolia [5]; 600 g/ha) was 38.25%.
With `COCc1cnc(C2=NC(C)(C(C)C)C(=O)N2)c(C(=O)O)c1` (racemic) [Imazamox SL, 2-[(RS)-4-isopropyl-4-methyl-5-oxo-2-imidazolin-2-yl]-5-methoxymethylnicotinic acid] the “Efficacy (% Control)” value (Persicaria lapathifolia [1]; 40 g ai/ha, 1,00 l/ha) was 67.9%, the “Efficacy (% Control)” value (Hibiscus trionum; 40 g ai/ha, 1,00 l/ha) was 58.1% and the “Efficacy (% Control)” value (Mercurialis annua; 40 g ai/ha, 1,00 l/ha) was 69.0%. For the same compound, the “Efficacy (% Control)” value (Fallopia convolvulus; 40 g ai/ha, 1,00 l/ha) was 92.8%, the “Efficacy (% Control)” value (Setaria pumila [2]; 40 g ai/ha, 1,00 l/ha) was 81.0% and the “Efficacy (% Control)” value (Calystegia sepium; 40 g ai/ha, 1,00 l/ha) was 80.5%. The “Efficacy (% Control)” value (Echinochloa crus-galli; 40 g ai/ha, 1,00 l/ha) was 85.1%, the “Efficacy (% Control)” value (Amaranthus retroflexus; 40 g ai/ha, 1,00 l/ha) was 93.3% and the “Efficacy (% Control)” value (Abutilon theophrasti; 40 g ai/ha, 1,00 l/ha) was 90.5%. For the same compound, the “Efficacy (% Control)” value (Chenopodium album; 40 g ai/ha, 1,00 l/ha) was 91.0%, the “Efficacy (% Control)” value (Sonchus arvensis; 40 g ai/ha, 1,00 l/ha) was 84.6% and the “Efficacy (% Control)” value (Conyza Canadensis; 40 g ai/ha, 1,00 l/ha) was 37.5%. The “Efficacy (% Control)” value (Digitaria sanguinalis; 40 g ai/ha, 1,00 l/ha) was 75.0%, the “Efficacy (% Control)” value (Ambrosia artemisiifolia; 40 g ai/ha, 1,00 l/ha) was 88.4% and the “% control observed” value (Persicaria lapathifolia [3]; 40 g/ha) was 67.90%. For the same compound, the “% control observed” value (Setaria pumila [4]; 40 g/ha) was 81%, the “% control observed 41 DAA” value (Setaria pumila [4]; 40 g/ha) was 20.00% and the “% control observed 62 DAA” value (Setaria pumila [4]; 40 g/ha) was 90.00%. For the same compound, the “% control observed 107 DAA” value (Setaria pumila [4]; 40 g/ha) was 81.00%, the “% control observed” value (Solanum Nigrum; 40 g/ha) was 79.45% and the “% control observed 13 DAA” value (Persicaria lapathifolia [5]; 40 g/ha) was 79.47%. The “% control observed 38 DAA” value (Persicaria lapathifolia [5]; 40 g/ha) was 58.11% and the “% control observed 76 DAA” value (Persicaria lapathifolia [5]; 40 g/ha) was 55.50%.
